In patent publication US20030203969A1, “Pharmaceutically active aromatic guanylhydrazones” (priority 2000, published 2003):

Key:
[1] = system: Lamivudine-resistant, mutant HBV; experiment: Transfected Lamivudine-resistant mutant HBV production in HepG2 cells; assay type: cell-based, Hepatitis B virus
Experimental: (§1) Human HepG2-2.2.15 cells (ATCC Cat. No. CRL-11997), chronically infected with HBV, are plated in 96-well microtiter plates in DMEM medium supplemented with fetal bovine serum. After incubation at 37° C. in a humidified, 5% CO2 environment for 16-24 hours, the monolayer of HepG2-2.2.15 cells is washed and the medium is replaced with complete medium containing various concentrations of test compound. Every three days during the experiments, the culture medium is replaced with fresh medium containing the appropriately diluted test compound. Six days following the initial administration of the test compound, the cell culture supernatant is collected and clarified by centrifugation. The cell viability is evaluated by a dye uptake procedure (Promega's Cell Titer Aqueous One Solution). Virion-associated HBV DNA present in the tissue culture supernatant is amplified employing PCR technology using primer pairs derived from the HBV strain ayw. Subsequently, the PCR-amplified HBV DNA is detected in real-time by monitoring increases in fluorescence signals that result from exonucleolytic degradation of a quenched fluorescent probe molecule following hybridization of the probe to the amplified HBV DNA (TaqMan; Perkin-Elmer).
The same type of experiments was additionally performed with a mutant, Lamivudine-resistant HBV strain, which was transfected into HepG2 cells. […]

BCBL-1 cells = experiment: Compound toxicity in BCBL-1 cells (Cell Titer Aqueous One); assay type: cell-based, human; conditions: read-out: TC50 (the source's name)
Experimental: The human BCBL-1 cell line is available through the AIDS Reference and Reagent Program (Cat.No. 3233). This cell line was derived from a body cavity-based lymphoma latently infected with HHV-8. Culturing these cells in the presence of phorbol ester induces a lytic infection cycle, resulting in the release of viral particles into the medium. Compound efficacy in this proposed assay is determined using TaqMan PCR technology, and compound toxicity is measured by addition of Promega's Cell Titer Aqueous One Solution (metabolic dye).
12. Duplicate plates will be set up plating media in place of TPA for evaluation of compound toxicity.
12. Twenty microliters of Cell Titer Aqueous One Solution (Promega) will be added to each well of the toxicity plates. Plates will be incubated at 37° C. in a humidified CO2 incubator for 4 hours or until sufficient color development has occurred. Plates will be read on a VMax microtiter plate reader at a wavelength of 490/650 nm. Toxicity of the test compound will be determined by comparing the optical density of test wells with that of control wells.

HepG2-2.2.15 cells = experiment: Cell viability of HepG2-2.2.15 cells (dye uptake); assay type: cell-based, human; conditions: inhibits cell growth by 50%, read-out: TC50 (the source's name)
Experimental: as §1

[2] = system: macrophage-tropic HIV-1Ba-L strain; experiment: Inhibition of macrophage-tropic HIV-1 Ba-L replication in de novo infected PM1 cells (p24 antigen); assay type: cell-based; conditions: d10
Experimental: HIV replication was measured either by p24 HIV Antigen Capture Assay Kit (ELISA; HIVAG-1 Monoclonal kit BIA011; Abbott) following the manufacturer's recommendation, or by using the Quantiplex HIV-1 RNA 3.0 Assay (bDNA) system (Chiron Diagnostics). The latter assay is a signal amplification nucleic acid probe assay (employing a sandwich nucleic acid hybridization procedure) for direct quantitation of HIV RNA in human plasma. There, in brief, HIV-1 is first concentrated from plasma by centrifugation. After release of genomic HIV-1 RNA from the virions, the RNA is captured to a microwell by a set of specific, synthetic oligonucleotide capture probes. A set of target probes hybridize to both the viral RNA and the pre-amplifier probes. The capture probes, comprised of 17 individual capture extenders, and the target probes, comprised of 81 individual target extenders, bind to different regions of the pol gene of the viral RNA. The amplifier probe hybridizes to the pre-amplifier forming a branched DNA (bDNA) complex. Then, multiple copies of an alkaline phosphatase labeled probe are hybridized to this immobilized bDNA complex. Detection is achieved by incubating the entire complex with a chemoluminescent substrate. Light emission is directly proportional to the amount of HIV-1 RNA present in each sample, and results are recorded as relative light units by an appropriate analyzer.
Jurkat cells (species: human T-cell leukemia; special characteristics: cells are permissive for growth of T-cell tropic HIV strains; source:ATCC Cat.No. TIB 152) or PM1 cells (species: clonal derivative of human HUT 78 cells; special characteristics: cells are permissive for growth of macrophage-tropic and T-cell tropic HIV strains; source: Dr. Marvin Reitz, courtesy of the NIH AIDS Research and Reference Reagent Program Cat.No. 3038) were stimulated with Phytohemagglutinin (PHA-P, Product No. L9132 from Sigma) in a concentration of 2 μg/ml (1.5×10^6 cells/ml) and Hexadimethrine Bromide (Polybrene, Product No. H9268 from Sigma) in a concentration of 2 μg/ml (1.5×10^6 cells/ml) in RPMI 1640 medium containing 10% fetal calf serum (FCS, Pansystems GmbH) and antibiotics for 3 days.
For HIV-1 infection, 5×10^7 cells were resuspended in 500 μl culture medium without test drugs and incubated in a 50 ml blue-cap-tube at 37° C. for 5 hrs with HIV-1 high titer viral stocks. Jurkat cells were infected with the T-cell tropic strain HIV-1 NL4-3, PM1 cells with the macrophage tropic strain HIV-1 Ba-L (both from the NIH AIDS Research and Reference Reagent Program). After infection, cells were washed twice with PBS without Ca^2+ and Mg^2+ to avoid false positive p24 antigen determination. Cells were resuspended, and identical aliquots (1×10^6/ml) of infected cells were further cultured in 10 ml medium with test drugs at various concentrations, or in medium with DMSO as control for calculation of the inhibition of virus replication (in %].
Culture medium was changed and cells were split at days 3 and 7 of the experiments. Viability of the cells (Trypan-blue staining), cell counts and p24 antigen levels were determined at days 3, 7 and 10 of the experiments. No significant differences in cell viability were observed (˜85-90% living cells).
At day 10 of infection, the HIV strains replicated vigorously in untreated cultures. Numbers describe percent inhibition of HIV replication as compared to control experiments.

CC(=NNC(=N)N)c1cc(NC(=O)CCCCCCCCC(=O)Nc2cc(C(C)=NNC(=N)N)cc(C(C)=NNC(=N)N)c2)cc(C(C)=NNC(=N)N)c1 [Compound 4, N,N′-bis (3,5-diacetylphenyl) decane diamide tetrakis (amidinohydrazone)]
Comments ([1]; Lamivudine-resistant mutant HBV): Active | IC50 ([1]; Lamivudine-resistant mutant HBV transfected into HepG2 cells, read-out: IC50 (μM) Virion-DNA): 2.78 µM | CC50 (BCBL-1 cells): 78.9 µM | CC50 (HepG2-2.2.15 cells): > 20 µM | percent inhibition of HIV replication as compared to control ([2]; 0.5 μM): 82% | percent inhibition of HIV replication as compared to control ([2]; 1.0 μM): 73%
